In patent US20260201008A1, “SECRETIN-DERIVED GLP1R SELECTIVE AGONISTS” (GUBRA A/S, priority 2023, published 2026):
pEC50: −log10 of the molar value. Like-named read-outs stand apart in the source and are kept apart here. Numbered stars: 1 amine (or outer) side, 2 acyl side, 3 side chain; on linkers, the order of the positions; unused ones are H or OH. Square brackets hold non-standard residues; d marks the D form. Side chains are listed from the residue outwards. Peptide text beside a SMILES is read from it. * marks the point of attachment. C20 diacid = O=C(O)CCCCCCCCCCCCCCCCCCC(=O)*; γGlu = O=C(O)[C@H](CCC(=O)[*:2])N[*:1]; AEEA = NCCOCCOCC(=O)O; Aib = CC(C)(N)C(=O)O

What was measured:
[1] = Turbidity of crude library peptides (absorbance at 600 nm); format: physicochemical; conditions: Physical stability of peptides
Protocol: (§1) Peptides were dissolved in buffers (50 mM sodium acetate at pH 4.0, or 50 mM sodium phosphate at pH 7.0) to 267 μM and incubated for 1-2 hours at room temperature. The samples were then divided into two replicates of 80 μl in a black 384 well plate (μ-clear, Greiner Bio-One) and mixed with Thioflavin T (ThT) to a final concentration of 4 μM. The plate was centrifuged for 2 min at 2000 rpm to remove air bubbles, sealed, and placed in a plate reader (CLARIOstar, BMG). Firstly, turbidity of the samples was measured as the absorbance at 600 nm. Secondly, the plate reader temperature was set to 40° C. and the fluorescence was measured every 10 min for 72 hours by exciting the ThT at 450 nm and measuring the emission at 480 nm. Samples were stressed by shaking the plate at 700 rpm (linear) for five minutes before every measurement, and fibril formation was determined as the average emission for each sample.

GLP1R = GLP1R (Homo sapiens, UniProt P43220); test: hGLP1R potency, cAMP accumulation in CHO-K1 cells stably overexpressing hGLP1R; format: cell-based; set-up: host or cells: CHO-K1; conditions: for Selectivity: SCTR EC50/GLP1R EC50 ratio; for EC50: cAMP accumulation, CHO-K1 cells overexpressing hGLP1R, read-out: pEC50 hGLPR1 (converted)
GLP1R, sequence (P43220 24-463): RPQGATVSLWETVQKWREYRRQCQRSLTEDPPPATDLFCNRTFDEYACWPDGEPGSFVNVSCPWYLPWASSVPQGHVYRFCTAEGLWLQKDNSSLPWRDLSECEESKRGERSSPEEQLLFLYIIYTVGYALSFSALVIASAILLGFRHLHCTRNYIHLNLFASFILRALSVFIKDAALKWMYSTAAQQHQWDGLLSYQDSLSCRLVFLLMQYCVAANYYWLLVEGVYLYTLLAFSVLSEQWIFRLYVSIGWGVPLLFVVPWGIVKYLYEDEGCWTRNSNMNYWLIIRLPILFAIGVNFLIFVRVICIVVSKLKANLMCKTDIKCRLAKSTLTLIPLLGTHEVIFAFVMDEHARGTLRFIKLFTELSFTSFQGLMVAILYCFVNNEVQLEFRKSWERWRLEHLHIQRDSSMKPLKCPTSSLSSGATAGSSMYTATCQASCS
In short: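 EC50 derives from variable-slope nonlinear regression of cAMP HTRF signal, with purified peptides tested as 11 three-fold dilutions in duplicate. Assay: hGLP1R-overexpressing CHO-K1 cells, 0.5 mM IBMX, 0.05% casein in DPBS, 30 min room-temperature stimulation, GLP-1(7-36) as reference agonist.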

[2] = Fibril formation of crude library peptides (Thioflavin T); format: physicochemical; set-up: key: average ThT fluorescence emission at 480 nm (ex 450 nm), raw units; conditions: Physical stability of peptides
Protocol: as §1

SCTR = SCTR (Homo sapiens, UniProt P47872); test: hSCTR potency, cAMP accumulation in CHO-K1 cells stably overexpressing hSCTR; format: cell-based; set-up: alternatively Euroscreen ES-712-AF; FAST-0161L; host or cells: CHO-K1; conditions: for EC50: cAMP accumulation, CHO-K1 cells overexpressing hSCTR, read-out: pEC50 hSCTR (converted)
SCTR, sequence (P47872 23-440): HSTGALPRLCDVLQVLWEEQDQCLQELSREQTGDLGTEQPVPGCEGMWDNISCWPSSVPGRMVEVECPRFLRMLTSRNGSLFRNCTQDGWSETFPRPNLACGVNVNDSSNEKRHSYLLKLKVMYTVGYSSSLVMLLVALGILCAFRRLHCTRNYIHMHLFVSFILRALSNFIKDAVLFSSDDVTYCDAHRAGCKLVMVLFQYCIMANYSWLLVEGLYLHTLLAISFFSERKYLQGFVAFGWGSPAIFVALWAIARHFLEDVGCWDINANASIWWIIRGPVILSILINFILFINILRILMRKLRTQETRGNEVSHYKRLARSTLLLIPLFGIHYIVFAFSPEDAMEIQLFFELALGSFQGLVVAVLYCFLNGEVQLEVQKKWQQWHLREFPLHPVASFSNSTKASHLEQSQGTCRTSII
In short: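 EC50 derived from variable-slope nonlinear regression on 11-point, 3-fold series run in duplicate (crude peptides: 5 points, 10-fold, n=1). Compound stimulation lasted 30 min at room temperature in casein/IBMX-containing DPBS (0.05%, 0.5 mM), 2000 cells/well; cAMP detected by time-resolved FRET after one hour.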

SMILES | Turbidity (pH 7) [1] | Selectivity (GLP1R) | EC50 (GLP1R) [nM] | Fibril formation [2] | EC50 (SCTR) [nM] | pEC50 (GLP1R) | pEC50 (SCTR)
CC(C)C[C@H](NC(=O)[C@H](CCC(=O)O)NC(=O)[C@H](CCCCNC(=O)COCCOCCNC(=O)COCCOCCNC(=O)CC[C@H](NC(=O)CCCCCCCCCCCCCCCCCCC(=O)O)C(=O)O)NC(=O)[C@H](CC(C)C)NC(=O)[C@H](CCCNC(=N)N)NC(=O)[C@H](CO)NC(=O)[C@@H](NC(=O)[C@H](CC(=O)O)NC(=O)[C@H](CO)NC(=O)[C@@H](NC(=O)[C@H](Cc1ccccc1)NC(=O)[C@@H](NC(=O)CNC(=O)[C@H](CCC(=O)O)NC(=O)C(C)(C)NC(=O)[C@@H](N)Cc1c[nH]cn1)[C@@H](C)O)[C@@H](C)O)C(C)C)C(=O)N[C@@H](C)C(=O)N[C@@H](C)C(=O)N[C@@H](CCC(N)=O)C(=O)N[C@@H](CCC(N)=O)C(=O)N[C@@H](CCCNC(=N)N)C(=O)N[C@@H](Cc1ccccc1)C(=O)N[C@@H](CC(C)C)C(=O)N[C@@H](CCC(=O)O)C(=O)N[C@@H](Cc1c[nH]cn1)C(=O)N[C@@H](CC(C)C)C(=O)N[C@H](C(N)=O)C(C)C [compound 3] (H-H[Aib]EGTFTSDVSRLK([AEEA-AEEA-γGlu-C20 diacid])ELAAQQRFLEHLV-NH2) | 0.08 | 4851 | 0.0158 | 13795 | 79.4 |  | 
CC(C)C[C@H](NC(=O)[C@H](Cc1ccccc1)NC(=O)[C@H](CCCNC(=N)N)NC(=O)[C@H](CCC(N)=O)NC(=O)[C@@H](NC(=O)[C@H](C)NC(=O)[C@H](C)NC(=O)[C@@H](NC(=O)[C@H](CCC(=O)O)NC(=O)[C@H](CCCCNC(=O)COCCOCCNC(=O)COCCOCCNC(=O)CC[C@H](NC(=O)CCCCCCCCCCCCCCCCCCC(=O)O)C(=O)O)NC(=O)[C@H](CC(C)C)NC(=O)[C@H](Cc1ccc(O)cc1)NC(=O)[C@H](CO)NC(=O)[C@@H](NC(=O)[C@H](CC(=O)O)NC(=O)[C@H](CO)NC(=O)[C@@H](NC(=O)[C@H](Cc1ccccc1)NC(=O)[C@@H](NC(=O)CNC(=O)[C@H](CCC(=O)O)NC(=O)C(C)(C)NC(=O)[C@@H](N)Cc1c[nH]cn1)[C@@H](C)O)[C@@H](C)O)C(C)C)[C@@H](C)O)[C@@H](C)O)C(=O)N[C@@H](CCC(=O)O)C(=O)N[C@@H](Cc1c[nH]cn1)C(=O)N[C@@H](CC(C)C)C(=O)N[C@H](C(N)=O)C(C)C [compound 4] (H-H[Aib]EGTFTSDVSYLK([AEEA-AEEA-γGlu-C20 diacid])ETAATQRFLEHLV-NH2) | 0.08 | 13928 |  | 32222 |  | 11.10 | 7.00
CC(C)C[C@H](NC(=O)[C@H](Cc1ccccc1)NC(=O)[C@H](CCCNC(=N)N)NC(=O)[C@H](CCC(N)=O)NC(=O)[C@H](CCC(N)=O)NC(=O)[C@H](C)NC(=O)[C@H](C)NC(=O)C(C)(C)NC(=O)[C@H](CCC(=O)O)NC(=O)[C@H](CCCCNC(=O)COCCOCCNC(=O)COCCOCCNC(=O)CC[C@H](NC(=O)CCCCCCCCCCCCCCCCCCC(=O)O)C(=O)O)NC(=O)[C@H](CC(C)C)NC(=O)[C@H](CCC(=O)O)NC(=O)[C@H](CO)NC(=O)[C@@H](NC(=O)[C@H](CC(=O)O)NC(=O)[C@H](CO)NC(=O)[C@@H](NC(=O)[C@H](Cc1ccccc1)NC(=O)[C@@H](NC(=O)CNC(=O)[C@H](CCC(=O)O)NC(=O)C(C)(C)NC(=O)[C@@H](N)Cc1c[nH]cn1)[C@@H](C)O)[C@@H](C)O)C(C)C)C(=O)N[C@@H](CCC(=O)O)C(=O)N[C@@H](Cc1c[nH]cn1)C(=O)N[C@@H](CC(C)C)C(=O)N[C@H](C(N)=O)C(C)C [compound 5] (H-H[Aib]EGTFTSDVSELK([AEEA-AEEA-γGlu-C20 diacid])E[Aib]AAQQRFLEHLV-NH2) | 0.09 | 6907 | 0.0126 | 14563 | 79.4 |  | 
CC(C)C[C@H](NC(=O)[C@H](Cc1ccccc1)NC(=O)[C@H](CCCNC(=N)N)NC(=O)[C@H](CCC(N)=O)NC(=O)C(C)(C)NC(=O)[C@H](C)NC(=O)[C@H](C)NC(=O)C(C)(C)NC(=O)[C@H](CCC(=O)O)NC(=O)[C@H](CCCCNC(=O)COCCOCCNC(=O)COCCOCCNC(=O)CC[C@H](NC(=O)CCCCCCCCCCCCCCCCCCC(=O)O)C(=O)O)NC(=O)[C@H](CC(C)C)NC(=O)[C@H](CCC(=O)O)NC(=O)[C@H](CO)NC(=O)[C@@H](NC(=O)[C@H](CC(=O)O)NC(=O)[C@H](CO)NC(=O)[C@@H](NC(=O)[C@H](Cc1ccccc1)NC(=O)[C@@H](NC(=O)CNC(=O)[C@H](CCC(=O)O)NC(=O)C(C)(C)NC(=O)[C@@H](N)Cc1c[nH]cn1)[C@@H](C)O)[C@@H](C)O)C(C)C)C(=O)N[C@@H](CCC(=O)O)C(=O)N[C@@H](Cc1c[nH]cn1)C(=O)N[C@@H](CC(C)C)C(=O)N[C@H](C(N)=O)C(C)C [compound 7] (H-H[Aib]EGTFTSDVSELK([AEEA-AEEA-γGlu-C20 diacid])E[Aib]AA[Aib]QRFLEHLV-NH2) | 0.08 | 18030 | 0.0631 | 10801 | 1000 |  | 

More lines, main results first:

Turbidity (pH 7) [1] | Selectivity (GLP1R) | EC50 (GLP1R) [nM] | Fibril formation [2] | EC50 (SCTR) [nM] | SMILES | pEC50 (GLP1R) | pEC50 (SCTR)
0.09 | 11820 | 0.0316 | 6489 | 316 | CC(C)C[C@H](NC(=O)[C@H](Cc1ccccc1)NC(=O)[C@H](CCCNC(=N)N)NC(=O)[C@H](CCC(N)=O)NC(=O)[C@H](CO)NC(=O)[C@H](C)NC(=O)[C@H](C)NC(=O)[C@H](CCC(=O)O)NC(=O)[C@H](CCC(=O)O)NC(=O)[C@H](CCCCNC(=O)COCCOCCNC(=O)COCCOCCNC(=O)CC[C@H](NC(=O)CCCCCCCCCCCCCCCCCCC(=O)O)C(=O)O)NC(=O)[C@H](CC(C)C)NC(=O)[C@@H](NC(=O)[C@H](CO)NC(=O)[C@@H](NC(=O)[C@H](CC(=O)O)NC(=O)[C@H](CO)NC(=O)[C@@H](NC(=O)[C@H](Cc1ccccc1)NC(=O)[C@@H](NC(=O)CNC(=O)[C@H](CCC(=O)O)NC(=O)C(C)(C)NC(=O)[C@@H](N)Cc1c[nH]cn1)[C@@H](C)O)[C@@H](C)O)C(C)C)[C@@H](C)O)C(=O)N[C@@H](CCC(=O)O)C(=O)N[C@@H](Cc1c[nH]cn1)C(=O)N[C@@H](CC(C)C)C(=O)N[C@H](C(N)=O)C(C)C [compound 6] (H-H[Aib]EGTFTSDVSTLK([AEEA-AEEA-γGlu-C20 diacid])EEAASQRFLEHLV-NH2) |  | 
0.09 | 30095 | 0.0501 | 259534 | 1580 | CC(C)C[C@H](NC(=O)[C@H](Cc1ccccc1)NC(=O)[C@H](CCCNC(=N)N)NC(=O)[C@H](CCC(N)=O)NC(=O)[C@H](CO)NC(=O)[C@H](C)NC(=O)[C@H](C)NC(=O)[C@H](Cc1ccccc1)NC(=O)[C@H](CCC(=O)O)NC(=O)[C@H](CCCCNC(=O)COCCOCCNC(=O)COCCOCCNC(=O)CC[C@H](NC(=O)CCCCCCCCCCCCCCCCCCC(=O)O)C(=O)O)NC(=O)[C@H](CC(C)C)NC(=O)[C@H](CCC(=O)O)NC(=O)[C@H](CO)NC(=O)[C@@H](NC(=O)[C@H](CC(=O)O)NC(=O)[C@H](CO)NC(=O)[C@@H](NC(=O)[C@H](Cc1ccccc1)NC(=O)[C@@H](NC(=O)CNC(=O)[C@H](CCC(=O)O)NC(=O)C(C)(C)NC(=O)[C@@H](N)Cc1c[nH]cn1)[C@@H](C)O)[C@@H](C)O)C(C)C)C(=O)N[C@@H](CCC(=O)O)C(=O)N[C@@H](Cc1c[nH]cn1)C(=O)N[C@@H](CC(C)C)C(=O)N[C@H](C(N)=O)C(C)C [compound 8] (H-H[Aib]EGTFTSDVSELK([AEEA-AEEA-γGlu-C20 diacid])EFAASQRFLEHLV-NH2) |  | 
